From a melting point compilation (Tetko et al.; mined from patent text by program, amines drawn as free bases though some values may be those of a salt)

| Compound | melting point |
| --- | --- |
| CNC(=NC#N)NCc1cccc(-c2csc(N=C(N)N)n2)n1 | 245 to 246 °C |
| CS(=O)(=O)Nc1cc(N)c([N+](=O)[O-])cc1OC1CCCCC1 | 136 to 137 °C |
| COc1cc2c(cc1-c1ccccc1)c1cc(-c3ccccc3)c(OC)cc1n2CCC(C)CCCC(C)C (stereo not given) | 119 °C |
| COC(=O)c1nc(-c2cc(N(C)C)c(Cl)cc2F)cc(N)c1Cl | 113 to 115 °C |
| CC(C)c1ccccc1N1/C(=N\N=C/c2ccc(-c3ncn(-c4ccc(OC(F)(F)F)cc4)n3)cc2)SCC1(O)C(F)(F)F (stereo not given) | 185 to 187 °C |
| CC(=O)OC1CCCCC1n1c(Br)nc2cc(Cl)c(Cl)cc21 (stereo not given) | 167 to 169 °C |
| CSc1nc(N)c(N)c(=O)n1C | 211 to 212 °C |
| CC1CN(c2c(F)cc3c(=O)c(C(=O)O)cn(C4CC4)c3c2OC(F)F)CCN1 (stereo not given) | 223 to 225 °C |
| COC(=O)c1csc(NC(=O)c2cc(OC)c(OC)cc2OC)n1 | 251 to 252 °C |
| CC(C)(C)OC(=O)c1ncn2c1[C@@H]1CCN1C(=O)c1c(Cl)cccc1-2 | 235 to 236 °C |
| O=C1N(Cc2ccc3nonc3c2)c2ccccc2C12COc1cc3c(cc12)OCO3 (stereo not given) | 163 to 165 °C |
| CN(C)C(=O)c1ccc(I)cc1 | 103 to 106 °C |
| Clc1ccc(CCNc2ccc3ccc(NCCc4ccc(Cl)cc4)nc3c2)cc1 | 55 to 60 °C |
| CCC(Oc1cccc(C(F)(F)F)c1Cl)C1=NCCN1 (stereo not given) | 102 to 103 °C |
| C[C@H]1CCCC(C)(C)[C@@H]1[C@H](O)c1ccc(C#N)c(Cl)c1 | 116 to 118 °C |
| COc1cc2c(s1)c(=O)c(SC)cn2C | 185 to 187 °C |
| CCOC(=O)C(C(=O)OCC)C(NC(C)=O)[PH](=O)O (stereo not given) | 113 to 114 °C |
| O=C(O)CC1(O)CCC(N2CCN(CCCNc3ccncc3)CC2)CC1 (stereo not given) | 242 °C |
| Cc1oc(-c2ccco2)nc1COc1ccc(CO)cc1Br | 141 to 142 °C |
| COc1cccc(Oc2ccc([C@@H]3CCCN4CCS(=O)(=O)N=C34)cc2)c1 | 139 to 140 °C |
| CCCC(=NOCC)C1=C(O)CC(c2cc(C3CCOC3)no2)CC1=O (stereo not given) | 85 °C |
| O=c1[nH]c2ncc(-c3ccnc(O)c3)nc2n1CC1CCCCC1 | 311 to 313 °C |
| CN(c1cccc2cc(C(N)=S)[nH]c12)S(=O)(=O)c1cccs1 | 239 to 240 °C |

| Compound | melting point |
| --- | --- |
| CC1(C)Oc2cccc(O)c2O1 | 88 to 90 °C |
| CC#CCNC(=NC#N)SC | 180 to 183 °C |
| COc1ccc2ncc(CO)c(O)c2c1 | 327 to 334 °C |
| NC(=NO)c1ccncc1 | 203 to 205 °C |
| COc1cc2c3c(ccc(N)c3c1N)C(=O)N(O)C2=O | 317 to 318 °C |
| CC(C)(C#N)C(O)(CCc1ccc(F)cc1)Cn1cncn1 (stereo not given) | 152 to 154 °C |
| CS(=O)(=O)c1ccc(-n2cnc(Cl)c2-c2ccc(Cl)c(Cl)c2)cc1 | 156 to 157 °C |
| CNS(=O)(=O)Cc1ccc2[nH]ccc2c1 | 127 to 129 °C |
| O=c1c2ccccc2cc2sccn12 | 135 to 136 °C |
| Cn1nnc(-c2cccc([N+](=O)[O-])c2)n1 | 105 °C |
| O=c1[nH]c2cc(-c3cn4ccccc4n3)ccc2s1 | > 270 °C |
| COc1ccc(Cn2cnc3c(-c4ccco4)nc(N(C)C)nc32)cc1 | 163 to 164 °C |
| CCCCCCCS(=O)(=O)c1nn2c(=O)c(OC)cnc2s1 | 106 to 109 °C |
| O=P(O)(O)Cc1cc(C(F)(F)F)cc(C(F)(F)F)c1 | 206 to 208 °C |
| N#CN1CCNC(c2ccccc2)c2ccccc2C1 (stereo not given) | 134 to 135 °C |
| O=C1CCCc2onc(-c3ccccc3[N+](=O)[O-])c21 | 125 to 127 °C |
| O=C(O)CCC1CCCC2CC(=O)NC12 (stereo not given) | 180 to 181 °C |
| CCCCCCOc1ccc(C=C(C#N)c2cccnc2)cc1 | 67 to 68 °C |
| CN(C)C1(c2ccccc2)CCC2(OCCc3c2[nH]c2ccccc32)C(F)C1 (stereo not given) | 245 to 247 °C |
| COc1ccc(Cn2nnnc2C(=O)Nc2cc(C(F)(F)F)cc(NC(=O)c3nnnn3Cc3ccc(OC)cc3)c2Cl)cc1 | 185 to 186 °C |
| CCCCCCCCCCCCCCOc1ccccc1CO | 33 to 34 °C |
| CS(=O)c1ccc(-c2nc(-c3ccc(F)cc3)c(-c3ccncc3)[nH]2)cc1 (stereo not given) | 250 to 252 °C |
| Cc1cc(OCc2coc(/C=C/c3ccc(OC(F)(F)F)cc3)n2)ccc1CCCCc1cn(C(c2ccccc2)(c2ccccc2)c2ccccc2)nn1 | 135 to 136 °C |

Now from value to compound:

| melting point | Compound |
| --- | --- |
| 180 to 181 °C | CC(C)C(=O)CCC(C)C1CCC2C3CC(O)C4CC(O)CCC4(C)C3CCC12C (stereo not given) |
| > 250 °C | CC(C)n1nc(-c2nc(-c3cn[nH]c3)c(N)nc2-c2ccccc2)ccc1=O |
| 131 to 135 °C | Cc1c(C)c(C)c(S(=O)(=O)NC(Cc2nc3ccc(C=CCNC4=NCCN4)cc3c(=O)[nH]2)C(=O)O)c(C)c1C (stereo not given) |
| 73 to 74 °C | CCOC(=O)[C@H]1C2C1[C@](N[C@H](C)c1ccccc1)(C(=O)OCC)C[C@@H]2O (stereo not given in full) |
| 153 to 155 °C | COc1cc(C=CC(=O)c2c(OCC=C(C)C)ccc3c(=O)c4ccccc4oc23)cc(OC)c1OC |
| 106 to 108 °C | CCc1c(C(C)C)cc(C(C)C)c(CO)c1-c1ccc(F)cc1 |
| 120 °C | CC(=O)N1CCC(C(=O)c2ccc(Br)cc2)CC1 |
| 128 to 129 °C | CCCCc1nc2cccc(C(=O)OC)c2n1Cc1ccc(-n2cccc2C#N)cc1 |
| 113 to 115 °C | COc1cc2c(cc1OC)[C@H]([C@H](O)c1ccccc1)OC2=O |
| 54 to 56 °C | CCOC(=O)CC(O)c1ccc([N+](=O)[O-])c(OC)c1 (stereo not given) |
| 126 to 127 °C | O=C1C[C@@H](NC(=O)OCc2ccccc2)C(=O)O1 |
| 58 °C | COc1ccccc1-c1cccc(C#N)c1 |
| 160 to 162 °C | CC(c1ccccc1)N1CCC(n2cnc3ccc(Cl)cc3c2=O)CC1 (stereo not given) |
| 80 to 82 °C | O=C1C(=O)c2ccccc2C2=C1SCC(CNCCc1ccccc1)O2 (stereo not given) |
| 65 to 66 °C | CCN(CC)CC(=O)Nc1ccc([N+](=O)[O-])cc1 |
| 86 to 87 °C | COC(=O)C(=O)c1ccc(OCCOC2CCc3ccccc3C2)cc1 (stereo not given) |
| 142 to 144 °C | CCCCCCC(C(C)O)n1c(C)nc(C(N)=O)c1N (stereo not given) |
| 137 to 139 °C | COc1ccc2cc(CCc3ccc(OCC(O)CNC(C)C)cc3)n(C)c(=O)c2c1 (stereo not given) |
| 47 to 49 °C | C=CCC[Si](c1ccccc1)(c1ccccc1)C1SCCCS1 |
| 152 to 153 °C | N#Cc1c(F)cc(OCc2ccsc2)cc1OC(C(=O)O)c1ccccc1Cl (racemic) |
| 162 to 165 °C | CCOCCOCCn1c(C=O)cc2c3c(c(-c4ccccc4Cl)cc21)C(=O)NC3=O |
| 66 to 68 °C | CCOC(=O)c1c(C)[nH]c2ccc(OC[C@@H](O)CN)cc12 |
| 209 to 210 °C | Cc1cc(-c2ccncc2)n2ncc(C(=O)c3ccccc3)c2n1 |
| 89 to 93 °C | CN(C)CCCNS(=O)(=O)c1cccc(N)c1 |
| 122 to 128 °C | CCCc1c(OCCCCCOc2ccc(C(=O)c3cccc(C(=O)O)c3)cc2CCC(=O)O)ccc2c1OCCC2=O |
| 105 to 106 °C | O=C(OCc1ccccc1)N1C(=O)[C@H](O)[C@@H]1c1ccccc1 |
| 189 to 190 °C | Cc1nn(-c2cc(C(F)(F)F)ccc2Cl)cc1C(=O)N(CC(=O)O)c1ccc(OCC(C)(C)C)c(C#N)c1 |

| melting point | Compound |
| --- | --- |
| 145 to 147 °C | CCOC(=O)CNC(=O)CS(=O)(=O)Nc1ccc(F)c(C(F)(F)F)c1 |
| 252 °C | Cc1ccc(N2C(=O)C(O)=C(C(=O)c3ccc(C(C)C)cc3)C2c2ccc(C(F)(F)F)cc2)nn1 (stereo not given) |
| 170 to 171 °C | CNC(=O)C(Sc1nc2cc(Cl)ccc2s1)c1ccccc1 (stereo not given) |
| 164 to 165 °C | CC(Oc1cccc(C(=O)NCCN(O)C(N)=O)c1)c1ccccc1 (stereo not given) |
| 171 °C | CC(C(=O)N1CCCC(C)(C)C1)N(C(=O)CN1C(=O)c2ccccc2C1=O)c1ccccc1 (racemic) |
| 147 °C | CCCCc1sc2ccc([N+](=O)[O-])cc2c1C(=O)c1ccc(O)cc1 |
| 144 °C | COc1ccc(N)cc1NCC(N)=O |
| 100 °C | CCN1CCCC1CNC(=O)Cc1ccc(-c2ccc3c(=O)c(-c4ncc[nH]4)c(N)n(CC)c3n2)cc1F (stereo not given) |
| 259 to 262 °C | CC12CCC3c4ccc(O)cc4C(CC(=O)O)CC3C1CC(O)C2O (stereo not given) |
| 100 to 110 °C | COCCc1cccc2oc(C(=O)Nc3ccc(-c4ccc(S(=O)(=O)NC(C(=O)O)C(C)C)cc4)cc3)c(C)c12 (stereo not given) |
| 196 to 198 °C | CNC(=S)n1nc(Nc2ccccc2)nc1N |
| 200 to 205 °C | CC(Oc1ccc2nc(-c3ccccc3OC(N)=O)sc2c1)c1ccccc1C(F)(F)F (stereo not given) |
| 180 to 181 °C | CCOCCNC(=O)c1cc2c(nc(C)n2C)c2c1CCC1(Cc3ccccc3C1)N2 |
| 238 to 240 °C | C=C(C)COC1CC2C3CCC4=CC(=O)C=CC4(C)C3(F)C(O)CC2(C)C1(O)C(=O)CCl (stereo not given) |
| 193 °C | Cc1cc(C(O)CN2CCC(O)(c3cccc(F)c3)CC2)c(C)cc1O (stereo not given) |
| 129 to 131 °C | CCCCOc1cc(C(=O)O)cc(S(N)(=O)=O)c1-c1ccccc1 |
| 142 to 146 °C | CCC(=O)COc1ccc(CC2SC(=O)NC2=O)cc1 (stereo not given) |
| 154 to 156 °C | CCOC(=O)Cc1ccc(NC(=O)C(COc2ccc(Cl)cc2)NS(=O)(=O)c2ccc(Br)cc2)cc1 (racemic) |
| 94.5 °C | COc1c(N(C)S(=O)(=O)c2ccc(C)cc2)ccccc1=O |
| 212 to 214 °C | CCCOc1ccccc1-c1nc2nc(NCC(C)O)ncc2c(=O)[nH]1 (stereo not given) |
| 129 to 130 °C | CC(C)Oc1ccc(COc2ccc(CC(=O)O)cc2Cl)cc1Cl |
| 174 to 175 °C | CCOC(=O)c1c(CN(C)c2ccccn2)nc2cc(OC)c(OC)cc2c1-c1ccc(OC)c(OC)c1 |
| 206 to 209 °C | CC(C)(O/N=C(\C(=O)N[C@@H]1C(=O)N[C@@H]1COC(=O)NC(=O)CCl)c1csc(NC(=O)CCl)n1)C(=O)OCc1ccc([N+](=O)[O-])cc1 (relative stereo) |
| 54 to 55 °C | COC(=O)/C=C/C(=O)/C=C/c1ccc(OC)cc1 |
| 135 °C | COC(=O)CC1c2ccc(Cl)cc2NC(=O)C1[N+](=O)[O-] (stereo not given) |
| 73 to 75 °C | CCNc1nc(C)c(C(=O)OCC)c(N2CCN(C)CC2)c1N |
| 138 to 140 °C | Cc1ccc(C23CC(C2)C(=O)N(C)C3=O)cc1 |
